Results from patent EP0181109B1, “N6-benzopyrano- and benzothiopyrano-adenosines” (WARNER-LAMBERT COMPANY, priority 1984, dated 1986).
pIC50: −log10 of the molar value.

Tests used:
[1] = target: T1, adenosine A1 receptor (Rattus norvegicus, UniProt P25099); experiment: Adenosine Receptor Binding - A1 Receptor Affinity (RBA 1), [3H]-CHA displacement; conditions: rat whole brain membranes, 1.0 nM [3H]-CHA, one hour at 25°C
T1 construct: Whole brain minus cerebellum and brainstem from male Long Evans rats (150-200 g) was homogenized; from tissue; host or cells: rat whole brain minus cerebellum and brainstem (membrane homogenate)
T1 sequence (P25099 1-326): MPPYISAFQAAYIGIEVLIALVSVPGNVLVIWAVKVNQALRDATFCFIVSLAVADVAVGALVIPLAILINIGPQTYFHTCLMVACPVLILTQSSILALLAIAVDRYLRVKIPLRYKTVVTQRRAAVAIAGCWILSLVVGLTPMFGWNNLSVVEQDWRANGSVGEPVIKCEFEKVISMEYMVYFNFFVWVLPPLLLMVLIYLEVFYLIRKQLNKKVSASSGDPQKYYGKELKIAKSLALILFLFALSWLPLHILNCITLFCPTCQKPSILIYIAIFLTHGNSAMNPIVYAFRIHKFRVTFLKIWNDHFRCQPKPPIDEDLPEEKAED
Description: Whole brain minus cerebellum and brainstem from male Long Evans rats (150-200 g) was homogenized in 30 volumes of ice-cold 0.05 M Tris-HCI buffer pH 7.7 using a Brinkman Polytron PT-10, (setting number 6 for 20 seconds) and centrifuged for ten minutes at 20,000 x g (Sorvall RC-2), 4°C. The supernatant was discarded, and the pellet was resuspended and centrifuged as before. The pellet was resuspended in 20 ml Tris-HCI buffer containing two International Units/ml of adenosine deaminase (Sigma Type III from calf intestinal mucosa), incubated at 37°C for 30 minutes, then subsequently at 0°C for ten minutes. The homogenate was again centrifuged, and the final pellet was resuspended in ice-cold 0.05 M Tris-HCI buffer pH 7.7 to a concentration of 20 mg/ml original wet tissue weight and used immediately.
Tissue homogenate (10 mg/ml) was incubated in 0.05 M Tris-HCI buffer pH 7.7 containing 1.0 nM [^3H]-N^6-cyclohexyladenosine (^3H]-CHA) with or without test agents in triplicate for one hour at 25°C. Incubation volume was 2 ml. Unbound [^3H]-CHA was separated by rapid filtration under reduced pressure through Whatman glass fiber (GF/B) filters. The filters were rinsed three times with 5 ml of ice cold 0.05 M Tris-HCI buffer pH 7.7. The radio-labele ligand retained on the filter was measured by liquid scintillation spectrophotometry after shaking the filters for one hour or longer on a mechanical shaker in 10 ml of Beckman Ready-Solv HP scintillation cocktail.
Nonspecific binding was defined as the binding which occurred in the presence of 1 mM theophylline. The concentration of test agent which inhibited 50% of the specific binding (IC50) was determined by nonlinear computer curve fit. The Scatchard plot was calculated by linear regression of the line obtained by plotting the amount of radioligand bound (pmoles/gram of tissue) versus
• bound radioligand • free radioligand Since the amount of radioligand bound was a small fraction of the total amount added, free radioligand was defined as the concentration (nM) of radioligand added to the incubation mixture. The Hill coefficient was calculated by linear regression of the line obtained by plotting the log of the bound radioligand vs the log of the • bound radioligand • Bmax - bound radioligand • The maximal number of binding sites (Bmax) was calculated from the Scatchard plot.

[2] = target: T2, adenosine A2 receptor (Rattus norvegicus, UniProt P30543); experiment: Adenosine Receptor Binding - A2 Receptor Affinity (RBA2), [3H]NECA displacement in striatal membranes; conditions: 4 nM [3H]NECA, 50 nM N6-cyclopentyladenosine, 60 minutes at 25°C, read-out: RBA-2 (IC50, A2 receptor affinity)
T2 construct: Brains were thawed and then kept on ice while the striata were dissected out; tissue Pel-Freez (Rogers, Arkansas); host or cells: rat striatum (membranes)
Description: Brains from 200-500 g mixed sex Sprague-Dawley rats were purchased from Pel-Freez (Rogers, Arkansas). Fresh brains from male Long-Evans hooded rats (Blue Spruce Farms, Altamont, NY) gave essentially identical results. Brains were thawed and then kept on ice while the striata were dissected out. Striata were disrupted in 10 vol of ice-cold 50 mM Tris·HCl (pH 7.7 at 25°C, pH 8.26 at 5°C) (Tris) for 30 seconds in a Polytron PT―10 (Brinkmann) at setting 5. The suspension was centrifuged at 50,000 xg for ten minutes, the supernatant discarded, the pellet resuspended in 10 vol ice-cold Tris as above, recentrifuged, resuspended at 1 g/5 ml, and stored in plastic vials at -70°C (stable for at least six months). When needed, tissue was thawed at room temperature, disrupted in a Polytron, and kept on ice until used.
All incubations were for 60 minutes at 25°C in 12 x 75 mm glass tubes containing 1 ml Tris with 5 mg original tissue weight of rat weight of rat striatal membranes, 4 nM [^3H]-N-ethyl adenosine-5'-carboxamide ([^3H]NECA), 50 nM N^s-cyclopentyladenosine (to eliminate A1 receptor binding), 10 mM MgCI2, 0.1 units/ml of adenosine deaminase and 1% dimethylsulfoxide. N^6-Cyclopentyladenosine was dissolved at 10 mM in 0.02 N HCI and diluted in Tris. Stock solutions and dilutions of N^6-cyclopentyladenosine could be stored at -20°C for several months. Test compounds were dissolved at 10 mM in dimethylsulfoxide on the same day as the experiment, and diluted in dimethylsulfoxide to 100x the final incubation concentration. Control incubations received an equal volume (10 µl) of dimethylsulfoxide; the resulting concentration of dimethylsulfoxide had no effect on binding. [^3H]NECA was diluted to 40 nM in Tris. The membrane suspension (5 mg/0.79 ml) contained sufficient MgC12 and adenosine deaminase to give 10 mM and 0.1 units/ml, respectively, final concentration in the incubation. […] After all additions, the rack of tubes was vortexed, and the tubes were then incubated for 60 min at 25°C in a shaking water bath. The rack of tubes was vortexed an additional time halfway through the incubation.
Incubations were terminated by filtration through 2.4 cm GF/B filters under reduced pressure. Each tube was filtered as follows: the contents of the tube were poured onto the filter, 4 ml of ice-cold Tris were added to the tube and the contents poured onto the filter, and the filter was washed twice with 4 ml of ice-cold Tris. The filtration was complete in about 12 seconds. Filters were put in scintillation vials, 8 ml of Formula 947 scintillation fluid added, and the vials left overnight, shaken, and counted in a liquid scintillation counter at 40% efficiency.
Nonspecific binding was defined as binding in the presence of […] N^6-cyclopentyladenosine, and specific binding was defined as total binding minus nonspecific binding. The IC50 was calculated by weighted nonlinear least squares curve-fitting to the mass action equation. [formula] • where Y is cpm bound • T is cpm total binding without drug • S is cpm specific binding without drug • D is the concentration of drug • and K is the IC50 of the drug Weighting factors were calculated under the assumption that the standard deviation was proportional to the predicted value of Y. Nonspecific binding was treated as a very large (infinite) concentration of drug in the computer analysis.

T2 sequence (P30543 whole entry): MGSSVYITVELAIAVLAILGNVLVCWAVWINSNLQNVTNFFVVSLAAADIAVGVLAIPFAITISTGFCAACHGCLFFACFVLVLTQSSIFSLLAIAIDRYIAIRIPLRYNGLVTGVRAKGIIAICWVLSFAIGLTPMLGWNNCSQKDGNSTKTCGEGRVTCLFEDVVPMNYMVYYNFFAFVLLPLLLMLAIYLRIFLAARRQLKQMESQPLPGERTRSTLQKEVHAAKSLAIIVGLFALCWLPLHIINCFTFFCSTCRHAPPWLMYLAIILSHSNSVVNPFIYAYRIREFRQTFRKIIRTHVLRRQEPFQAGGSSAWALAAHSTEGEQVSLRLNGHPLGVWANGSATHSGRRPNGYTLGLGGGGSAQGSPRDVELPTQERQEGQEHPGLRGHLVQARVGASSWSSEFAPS

pIC50 [1]: 6.73 | pIC50 [2]: 5.81
SMILES: Cc1ccc(C(C)C)c2c1CC(Nc1ncnc3c1ncn3[C@@H]1O[C@H](CO)[C@@H](O)[C@H]1O)CO2 (some centres unmarked) [Example 12, N^6-[8-lsopropyl-5-methyl-3-chromanylamino]adenosine]
